# Reference: US6858399B2, “Test for oxidative stress using cell suspensions” (priority 1998, dated 2005)
# B1: CAT: catalase (protein, UniProt P00432 2-527, looked up)
# Catalase: ADNRDPASDQMKHWKEQRAAQKPDVLTTGGGNPVGDKLNSLTVGPRGPLLVQDVVFTDEMAHFDRERIPERVVHAKGAGAFGYFEVTHDITRYSKAKVFEHIGKRTPIAVRFSTVAGESGSADTVRDPRGFAVKFYTEDGNWDLVGNNTPIFFIRDALLFPSFIHSQKRNPQTHLKDPDMVWDFWSLRPESLHQVSFLFSDRGIPDGHRHMNGYGSHTFKLVNANGEAVYCKFHYKTDQGIKNLSVEDAARLAHEDPDYGLRDLFNAIATGNYPSWTLYIQVMTFSEAEIFPFNPFDLTKVWPHGDYPLIPVGKLVLNRNPVNYFAEVEQLAFDPSNMPPGIEPSPDKMLQGRLFAYPDTHRHRLGPNYLQIPVNCPYRARVANYQRDGPMCMMDNQGGAPNYYPNSFSAPEHQPSALEHRTHFSGDVQRFNSANDDNVTQVRTFYLKVLNEEQRKRLCENIAGHLKDAQLFIQKKAVKNFSDVHPEYGSRIQALLDKYNEEKPKNAVHTYVQHGSHLSAREKANL
# Legend:
# [1] = tested on: brain cell fractions; assay: PC biosynthesis of brain cell fractions; type: cell-based; settings: brain cell fractions incubated 30 minutes; agent concentration (100 mM ethanol, 1 mM others)
# Protocol: (§1) PC extraction procedure: Two ml of chloroform and 0.5 ml of water were added to each sample. Tubes were vortexed and centrifuged for 5 minutes to clear the upper and lower phases. The upper phase was aspirated and the lower phase washed by adding 2 ml of wash solution containing 50% methanol, 45% water and 5% 7.4% KCl. The samples were vortexed and centrifuged 5 minutes to clear the upper and lower phases. The upper phase was aspirated and the lower phase was washed again in 2 ml wash solution. After the phases were cleared by centrifugation, the lower phase was carefully removed, placed in a glass test tube, dried, solubilized in scintillation fluid and counted in a Beckman beta counter. Agent-induced alterations in the incorporation of labeled choline into PC was used as a measure of changes in cellular PC biosynthesis.
# (§2) PC biosynthesis in isolated cells: Aliquots (0.75 ml) of Waymouth 752/1 media were placed in glass test tubes. Aliquots (0.01) of DMSO and water or DMSO and water containing various test agents were added to the tubes along with 0.02 ml [^3H]-choline [0.2 μCi and 15 pmoles choline]. Incubations were started by adding 0.5 ml aliquotes of cells suspended in Waymouth 752/1 media to the test tubes and placing the tubes in a shaking water bath at 37° C. Incubations were stopped after the appropriate incubation period (2-90 minutes) by addition of 2 ml of methanol containing 1% 1N HCl. Labeled PC was extracted by methods described above for cultured cells. Agent-induced increases in the incorporation of labeled choline into PC were used to measure increases in cellular PC biosynthesis.
# Cells were isolated from brain homogenates according to the methods described in the methodology section under “PC biosynthesis in isolated cells”.
# [2] = tested on: rat red blood cells; assay: Rat RBC PC biosynthesis; type: cell-based; settings: rat RBC's, 10 minutes incubation
# [3] = tested on: human red blood cells; assay: PC biosynthesis of human RBC's; type: cell-based; settings: for PC biosynthesis percent of control ± SEM: 30 minutes incubation, 100 mM ethanol, 1 mM APAP, 1 mM THC, 10 mM allyl alcohol, 1 mM cocaine, 1 mM BTM, with and without 4-MP
# [4] = tested on: cultured hepatocytes; assay: PC biosynthesis in primary cultures of adult rat hepatocytes, 72 h incubation; type: cell-based; settings: for Effect on the ethanol/acetaminophen-induced decrease in cellular PC biosynthesis / Change in cellular PC biosynthesis: 72 hours; for Effect on the ethanol/acetaminophen-induced decrease in cellular PC biosynthesis: co-incubation with 100 mM ethanol or 1 mM acetaminophen; for Change in cellular PC biosynthesis: 100 mM ethanol, 1 mM acetaminophen
# Protocol: Male sprague Dawley rats (Zivic-Miller) weighing 200 to 350 grams were treated with a 50 mg/kg dose of phenobarbital (ip) for 3 days prior to perfusion. During this 3 day period, the animals were also given water ad libitum containing 0.1% sodium phenobarbital. The animal was anesthetized with ether under a fume hood, then transferred to the surgical table with the abdomen exposed. The belly was shaved and cleansed with 70% ethanol and Clinidine. The abdominal skin was removed with scissors and forceps. An incision was made along the base of the abdomen and the renal artery was tied off.
# After the hepatic vein was cannulated with a 16 gauge catheter, the liver was washed with a balanced salt solution containing EDTA and Tricine. The hepatic artery was cannulated with a 16 gauge catheter. After 5 minutes of reverse flow perfusion was practiced to facilitate the wash cycle. After the blood is washed from the liver, the color of the liver changes from deep red to a brownish color.
# The liver was then infused with Collagenase solution (112.5 mg/300 ml of Waymouth 752/1 media) bubbled with 5% CO2. After 5 minutes, reverse flow of Collagenase into the liver was accomplished, followed by reverse to normal flow after 5 minutes. Normal flow was continued until liver tissue was breaking down and ready for collection. Complete liver wash and perfusion should take about 30 minutes.
# The perfused liver was collected with a strainer and transferred to an Erlenmeyer flask containing 50 ml of original Collagenase solution. The liver was minced using a gyratory water bath at 37° C. and allowed to swirl for no longer than 15 minutes. The solution was then filtered through a sterile gauze into centrifuge tubes and spun in a table top centrifuge for 5 minutes at 1000 rpm. (70×g). Aspirate media and suspended cells were placed in Waymouth 752/1 media containing 20% isodensity Percol and were then centrifuged for 4 minutes at 70×g. Cells were washed three times and resuspended in Waymouth 752/1 media. Samples of 0.5 ml were plated on 35 mm collagen-coated plastic culture dishes containing 0.75 ml of supplemented Waymouth 752/1 media.
# (§3) PC biosynthesis in cultured cells: Aliquots (0.01 ml) of DMSO and water or DMSO and water containing various agents were added to medium with 2-hour monolayers of cells. After the appropriate agent-incubation period, a 0.02 ml aliquot of [^3H]-choline (0.2 μCi and 15 pmoles of choline]) was added to Waymouth 752/1 {1.25 ml} media. Incubations were stopped after 90 minutes by addition of 2 ml of methanol containing 1% 1N HCl. Cells were removed from the culture dishes by scraping with TEFLON™-coated spatula and placed in glass test tubes. (Lamb, et al., Hepatology 19: 174 (1994))
# as §1
# [5] = tested on: rat liver cells; assay: PC biosynthesis of rat liver cells (labeled choline incorporation into PC); type: cell-based; settings: for Alteration in cellular PC biosynthesis: rat liver cells incubated 90 minutes, 100 mM ethanol or 1 mM acetaminophen
# [6] = tested on: cultured astrocyte; assay: Cultured astrocyte PC biosynthesis; type: cell-based; settings: for PC biosynthesis, Percent control of + SEM: cultured astrocytes, 100 mM ethanol, 1 mM APAP, 1 mM THC, 1 mM 4-MP, alone or combined
# [7] = tested on: human liver cells; assay: PC biosynthesis of human liver cells (labeled choline incorporation into PC); type: cell-based; settings: for Alteration in cellular PC biosynthesis: human liver cells incubated 90 minutes, 100 mM ethanol or 1 mM acetaminophen
# Protocol: as §3, §1
# as §2, with “Agent-induced increases in the incorporation of labeled choline into PC were used to measure increases in cellular PC biosynthesis.” left out
# [8] = tested on: cultured liver cells; assay: PC biosynthesis of cultured liver cells incubated 24 and 72 hours with and without vitamin E phosphate; type: cell-based; settings: 24 and 72 hours with and without 50 μM vitamin E phosphate
# Protocol: After the appropriate agent-incubation period, a 0.02 ml aliquot of [^3H]-choline (0.2 μCi and 15 pmoles of choline]) was added to Waymouth 752/1 {1.25 ml} media. […] Cells were removed from the culture dishes by scraping with TEFLON™-coated spatula and placed in glass test tubes. (Lamb, et al., Hepatology 19: 174 (1994))
# Alterations in PC biosynthesis were studied using cultured liver cells incubated 24 and 72 hours with and without 50 μM vitamin E phosphate (VEP).
# [9] = tested on: erythrocytes; settings: Ferrali, et al, Biochem Pharm. 38, 1819-1825 (1989); cited from earlier work
# [10] = tested on: cells isolated from rat lung; assay: PC biosynthesis in cells isolated from rat lung; type: cell-based; settings: 1 mM APAP, 30 minutes
# [11] = tested on: cultured rat liver cells; assay: PC biosynthesis of cultured rat liver cells from 3 and 20 month-old rats, 24 h; type: cell-based; settings: 1 mM APAP, 100 mM ETOH, mean ± SEM of nine values; for PC biosynthesis, 3 Month: cells from 3 month-old male rats; for PC biosynthesis, 20 Month: cells from 20 month-old male rats
# Protocol: as §3, §1
# [12] = tested on: erythrocytes; assay: PC biosynthesis in cells isolated from rat blood (erythrocytes); type: cell-based; settings: 1 mM APAP, 30 minutes
# Protocol: Preparation of red cell fractions: Rat or human blood was placed in Sorval tubes and, centrifuged at 3000 rpm for 10 minutes under refrigeration. The supernate was removed and the pellet of RBC's resuspended in PBS at 4 times the volume of the supernate. This may be frozen in 2 ml aliquots at −70° C.
# [13] = tested on: cells isolated from rat intestine; assay: PC biosynthesis in cells isolated from rat intestine; type: cell-based; settings: 1 mM APAP, 30 minutes
molecule,measurement,setting,value
O=S(=O)([O-])[O-].[Fe+2] [FeSO4],"Agent-induced alterations in PC biosynthesis, Percent control of + SEM",[1],226 ± 8 Percent control
COC(=O)[C@H]1[C@@H](OC(=O)c2ccccc2)C[C@@H]2CC[C@H]1N2C [cocaine],PC biosynthesis % of Control ± SEM,[2],458 ± 7 % of Control
same,PC biosynthesis percent of control ± SEM,[3],292 ± 10% of control
iron,PC biosynthesis % of Control ± SEM,[2],919 ± 73 % of Control
"Cc1cn[nH]c1 [4-MP, 4-methylpyrazole]",Effect on the ethanol/acetaminophen-induced decrease in cellular PC biosynthesis,[4],reduced
same,Effect on drug-induced increases in PC biosynthesis,"[3]; 30 minutes, 4-MP added to each agent",significantly (p<0.05) reduces
same,Effect on ethanol-induced and acetaminophen-induced increases in cellular biosynthesis,"[5]; 4-methylpyrazole, 90 minutes, with 100 mM ethanol or 1 mM acetaminophen",significantly reduced
same,Effect on agent-induced increase in PC biosynthesis,"[6]; 1 mM 4-MP with ethanol, APAP, THC or combinations",Å values without 4-MP are significantly increased (p < 0.05) above controls. 4-MP significantly reduced (p < 0.05) the agent-induced increase in PC biosynthesis.
same,Effect on ethanol and acetaminophen-induced increases in cellular PC biosynthesis,"[7]; 1 mM 4-methylpyrazole, 90 minutes, with 100 mM ethanol or 1 mM acetaminophen",significantly decreases
"ClC(Cl)(Cl)Br [BTM, bromotrichloromethane]",PC biosynthesis % of Control ± SEM,[2],533 ± 29 % of Control
same,PC biosynthesis percent of control ± SEM,[3],728 ± 3% of control
same,"Agent-induced alterations in PC biosynthesis, Percent control of + SEM",[1],194 ± 25 Percent control
"CCCCCc1cc(O)c2c(c1)OC(C)(C)[C@@H]1CCC(C)=C[C@@H]21 [THC, Δ-9-tetrahydrocannabinol]",PC biosynthesis % of Control ± SEM,[2],1142 ± 65 % of Control
same,PC biosynthesis percent of control ± SEM,[3],433 ± 30% of control
same,"Agent-induced alterations in PC biosynthesis, Percent control of + SEM",[1],293 ± 21 Percent control
same,"PC biosynthesis, Percent control of + SEM",[6],201 ± 11 Percent control
Cc1c(C)c2c(c(C)c1OP(=O)(O)O)CCC(C)(CCCC(C)CCCC(C)CCCC(C)C)O2 (stereo not drawn) [vitamin E phosphate],Alterations in PC biosynthesis,[8],incubation time-dependent decreases in PC biosynthesis unless vitamin E phosphate was added
"Cc1c(C)c2c(c(C)c1OC(=O)CCC(=O)O)CC[C@@](C)(CCC[C@H](C)CCC[C@H](C)CCCC(C)C)O2 [VES, vitamin E succinate]",Effect on the ethanol/acetaminophen-induced decrease in cellular PC biosynthesis,[4],reduced
C=CC=O [acreolein],Adverse effects on erythrocytes,[9],deleterious effects on the cells
"CC(=O)Nc1ccc(O)cc1 [APAP, acetaminophen]",PC biosynthesis % of Control ± SEM,[2],655 ± 26 % of Control
same,Change in cellular PC biosynthesis,[4],significant decrease
same,PC biosynthesis percent of control ± SEM,[3],512 ± 27% of control
same,Alteration in cellular PC biosynthesis,[5],significantly (p<0.05) increased
same,"PC biosynthesis percent of control ± SEM, lung",[10],471 ± 38% of control
same,"PC biosynthesis, Percent control of + SEM",[6],159 ± 15 Percent control
same,"PC biosynthesis, 3 Month",[11],137 ± 11% of control
same,"PC biosynthesis, 20 Month",[11],38 ± 2% of control
same,"PC biosynthesis percent of control ± SEM, erythrocytes",[12],236 ± 13% of control
same,Alteration in cellular PC biosynthesis,[7],significantly (p<0.05) increase
same,"PC biosynthesis percent of control ± SEM, intestine",[13],287 ± 13% of control
C=CC(=O)O [acrylic acid],Adverse effects on erythrocytes,[9],could not demonstrate the adverse effects
CCO [ethanol],PC biosynthesis % of Control ± SEM,[2],374 ± 19 % of Control
same,PC biosynthesis,"[4]; 72 h, 100 mM ETOH, 1 mM APAP, 0.5 mM 4-MP, 200 units SOD, 800 units CAT, 2 mM DEF, 0.025 mM 20:4, 0.25 mM 16:0, 6-9 experimental values",39 ± 2% of control
same,Change in cellular PC biosynthesis,[4],significant decrease
same,PC biosynthesis percent of control ± SEM,[3],222 ± 9% of control
same,Alteration in cellular PC biosynthesis,[5],significantly (p<0.05) increased
same,"Agent-induced alterations in PC biosynthesis, Percent control of + SEM",[1],173 ± 8 Percent control
same,"PC biosynthesis, Percent control of + SEM",[6],199 ± 14 Percent control
same,"PC biosynthesis, 3 Month",[11],147 ± 13% of control
same,"PC biosynthesis, 20 Month",[11],59 ± 1% of control
same,Alteration in cellular PC biosynthesis,[7],significantly (p<0.05) increase
C=CCO [allyl alcohol],PC biosynthesis % of Control ± SEM,[2],1315 ± 99 % of Control
same,PC biosynthesis percent of control ± SEM,[3],377 ± 3% of control
same,Adverse effects on erythrocytes,[9],could not demonstrate the adverse effects
B1,Effect on the ethanol/acetaminophen-induced decrease in cellular PC biosynthesis,[4],reduced
